Assay results: PMC3929664, “A Panel of Diverse Assays to Interrogate the Interaction between Glucokinase and Glucokinase Regulatory Protein, Two Vital Proteins in Human Disease” (PLoS ONE, 2014)
Blank lines part the entries; values can stand above or below the molecule they belong to.

Tests used:
[1] = system: GCK (recombinant GST-GCK); settings: cited from earlier work
[2] = biological target: T1, recombinant human GST-GCK (Homo sapiens, UniProt P35557); format: biochemical; settings: 4 nM GCK, 37.5 mM glucose, fit accounting for substrate inhibition, mean ± SD; read-out: ATP Km
T1 construct: GST (glutathione-S-transferase); made in house
T1 sequence (P35557 1-465): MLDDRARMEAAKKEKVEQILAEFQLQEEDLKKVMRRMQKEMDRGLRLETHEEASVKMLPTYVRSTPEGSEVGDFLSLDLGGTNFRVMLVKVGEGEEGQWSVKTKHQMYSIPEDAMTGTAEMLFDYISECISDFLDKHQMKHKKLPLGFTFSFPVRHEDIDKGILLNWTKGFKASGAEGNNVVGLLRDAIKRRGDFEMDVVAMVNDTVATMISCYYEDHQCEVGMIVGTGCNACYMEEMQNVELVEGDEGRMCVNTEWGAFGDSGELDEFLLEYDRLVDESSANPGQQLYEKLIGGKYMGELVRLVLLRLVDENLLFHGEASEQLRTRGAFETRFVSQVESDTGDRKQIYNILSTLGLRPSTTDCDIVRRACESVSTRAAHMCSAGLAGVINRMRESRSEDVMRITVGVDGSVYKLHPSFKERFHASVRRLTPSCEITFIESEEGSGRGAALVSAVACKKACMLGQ
Experimental: The ATP Km for GCK was determined by fluorescent monitoring of NADH oxidation using a dual-coupling system whereby generation of ADP by GCK was coupled to oxidation of NADH via PK and LDH (Figure S2A) [37]. The final reaction contained 4 nM GCK, glucose in five-fold excess of the calculated glucose S0.5 (37.5 mM), and ATP concentrations ranging from 0 to 2 mM. The reaction was initiated by addition of ATP and read immediately, then every 10 seconds for 5 minutes. Each ATP concentration was tested in quadruplicate. The initial slopes (v0) for each concentration were determined by linear regression (GraphPad Prism, GraphPad Software, San Diego, CA, USA), and then v0 was plotted against ATP concentration (Figure S2B).
(A) Reaction scheme of PK/LDH dual-coupled assay. The reaction included 4 nM GCK. (B) Reaction progress over the first 60 seconds was monitored by the loss of NADH fluorescence at 450 nm using a ViewLux Microplate Imager and results analyzed by linear regression. Resultant slopes from regression were plotted and the curve fit using nonlinear regression accounting for substrate inhibition in GraphPad Prism to give a best-fit Km value.

[3] = biological target: T1, recombinant human GST-GCK; assay: GCK glucose S0.5 and Hill coefficient by luminescent ADP-Glo assay; format: biochemical; settings: 4 nM GCK, 4 mM ATP, 45 minutes
Experimental: The glucose S0.5 and Hill coefficient for GCK were calculated using a luminescent assay measuring the production of ADP by GCK (ADP-Glo™ Kinase Assay, Promega Corporation, Madison, WI, USA; see below). Luminescence was measured at 18 glucose concentrations from 0.1 to 100 mM (two separate experiments; each n = 8 for each concentration).
The assay included 4 nM GCK and 4 mM ATP and was terminated after 45 minutes. Each data point is mean ± SEM (n = 8). Curves were fit using nonlinear regression with the allosteric sigmoidal option in GraphPad Prism to determine the S0.5 and Hill coefficient.

[4] = biological target: T2, GCK-GKRP interaction (recombinant human GST-GCK and FLAG-GKRP) (Homo sapiens, UniProt P35557+Q14397); assay: HTRF assay of the GCK-GKRP protein-protein interaction; format: binding; settings: 5 nM GCK, 5 nM GKRP, 2 µM S6P, mean ± SD; read-out: IC50 (inhibition of GCK-GKRP interaction, HTRF signal)
T2 construct: made in house
T2 sequence (P35557 1-465): T1 sequence (P35557 1-465)
T2 sequence (Q14397 1-625): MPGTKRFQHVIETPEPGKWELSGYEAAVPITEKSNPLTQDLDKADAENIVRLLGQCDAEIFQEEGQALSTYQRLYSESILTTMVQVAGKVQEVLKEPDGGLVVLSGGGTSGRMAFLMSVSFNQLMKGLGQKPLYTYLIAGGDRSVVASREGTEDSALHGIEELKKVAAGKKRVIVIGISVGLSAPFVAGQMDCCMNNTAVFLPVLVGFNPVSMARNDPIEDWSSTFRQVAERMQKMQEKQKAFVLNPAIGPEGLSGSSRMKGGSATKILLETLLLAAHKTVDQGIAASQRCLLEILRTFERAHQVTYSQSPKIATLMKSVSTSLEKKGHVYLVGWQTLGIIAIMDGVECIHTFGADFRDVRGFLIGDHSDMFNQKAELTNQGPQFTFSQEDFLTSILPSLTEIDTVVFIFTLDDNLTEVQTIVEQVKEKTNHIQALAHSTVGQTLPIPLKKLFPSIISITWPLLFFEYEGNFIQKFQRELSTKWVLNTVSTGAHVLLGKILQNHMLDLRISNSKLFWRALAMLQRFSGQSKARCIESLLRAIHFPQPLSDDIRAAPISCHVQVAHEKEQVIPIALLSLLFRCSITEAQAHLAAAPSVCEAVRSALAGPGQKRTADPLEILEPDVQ
Experimental: Homogeneous time-resolved fluorescence (HTRF) technology (Cisbio Bioassays, Bedford, MA, USA) was utilized for antibody-based FRET measurement of the GCK-GKRP protein-protein interaction. Recombinant human GST-GCK and FLAG-GKRP were mixed in an HTRF assay buffer containing 2 mM MgCl2, 25 mM KCl, 25 mM HEPES, 1 mM DTT, 0.1% Tween-20, and 0.025% BSA (all buffer components Sigma-Aldrich). The pH was adjusted to 7.1 by drop-wise addition of 10 N NaOH. […] For assays in 1536-well plate format, the two reaction mixes were dispensed using an Aurora Discovery BioRAPTR Flying Reagent Dispenser (BioRAPTR; Beckman Coulter, Inc., Brea, CA, USA) (3 µl/well for protein-containing buffer; 1 µl/well for detection antibodies) into white 1536-well solid-bottom medium binding plates (Greiner Bio-One, Monroe, NC, USA). […] For the LOPAC^1280 library screen, column 1 was all components with DMSO (maximum signal) and column 3 was no GKRP with DMSO (minimum signal). These two control columns were used for data normalization. The final HTS protocol is in Table S1, and the data have been deposited in PubChem (AID 743207).
S6P, F1P, and glucose were dissolved in water; GKAs were dissolved in DMSO.
The assay was validated using a range (0–150 nM) of GCK and GKRP concentrations at manufacturer-recommended detection antibody concentrations ( Figure 2A ). Fluorescence was measured immediately upon mixing, and every 30 minutes thereafter for a total of 240 minutes. The plate was covered and incubated at room temperature throughout the course of the experiment.
The assay was miniaturized to 1536-well plate format and, concurrently, specificity of detection was validated by using known modulators of the GCK-GKRP interaction.
The EC80 value represents a compromise between the desire for large enough signal enhancement and the need to maintain a binding level that is not too saturated so that it can be outcompeted by compounds of interest. Additionally, this approach enables detection of specific competitors of S6P, which would likely be acting on GKRP as desired, and not on GCK. […] Both glucose and GKAs interfere with the binding of GKRP to GCK and decrease GKRP inhibition, [44], [45], while F1P binds to GKRP and is competitive with respect to S6P [46].

[5] = system: cryopreserved human hepatocytes; assay: GCK translocation in cryopreserved human hepatocytes (GKRP-positive cells); format: cell-based
Experimental: Plateable cryopreserved human hepatocytes (female, lot number TRZ; male, lot number FOS) were plated at 50,000 cells/well in Biocoat black/clear collagen-coated 96-well plates in InVitroGRO™ CP medium supplemented with Torpedo™ Antibiotic Mix. After hepatocyte attachment, media was changed to InVitroGRO™ HI medium with Torpedo™ Antibiotic Mix.
Hepatocytes were fixed in 4% PFA for 15 minutes. PFA was then removed and cells were washed twice in Dulbecco’s phosphate-buffered saline (DPBS) containing 0.2% Triton-X and then permeabilized for 10 minutes with DPBS/0.2% Triton-X. Cells were then treated for 30 minutes with Odyssey protein blocking buffer (Li-cor Biosciences, Lincoln, NE, USA) before addition of a mouse monoclonal IgG2a GKRP antibody [GCKR (A-8); Santa Cruz Biotechnology, Inc., Santa Cruz, CA, USA]. The antibody (200 µg/ml) was diluted (1∶50) in protein blocking buffer and incubated with cells for 120 minutes. Cells were then washed (4×5 minutes) in PBS/0.1% Tween-20 before addition of protein blocking buffer containing Alexa Fluor® 647 Goat Anti-Mouse IgG (H+L) (Invitrogen; 1∶500 dilution) and rabbit polyclonal GCK antibody [1∶30 dilution; GCK (H-88) 200 µg/ml; Santa Cruz Biotechnology]. After 60 minutes, cells were washed with PBS/0.1% Tween-20 (4×5 minutes). Following a 60-minute incubation with blocking buffer and goat anti-rabbit IgG-HRP (1∶500 dilution; sc-2004; Santa Cruz Biotechnology), cells were washed with PBS/0.1% Tween-20 (4×5 minutes). Fluorescent detection of the HRP-conjugated secondary antibody was enabled using a 10-minute incubation with fluorescein-conjugated tyramide from the Tyramide Signal Amplification kit (PerkinElmer). The tyramide solution was prepared in DMSO (Sigma-Aldrich) according to the manufacturer’s instructions. Cells were then washed (3×5 minutes) with PBS/0.1% Tween-20 before a final five-minute wash with PBS/0.1% Tween-20 containing 0.02 mg/ml Hoechst 33342 Trihydrochloride Trihydrate (Hoechst; Invitrogen) for visualization of nuclei. After Hoechst staining, all cells were then stored in 100 µl DPBS at 4°C. […]

[6] = system: cryopreserved pooled male Sprague-Dawley rat hepatocytes; assay: GCK translocation in cryopreserved rat hepatocytes (high-content imaging); format: cell-based; settings: 2 hours
Experimental: Plateable cryopreserved pooled male Sprague-Dawley rat hepatocytes (lot number NPD) were thawed and plated (40,000 cells/well) in Biocoat black/clear collagen-coated 96-well plates (BD Biosciences, San Jose, CA, USA) in InVitroGRO™ CP Rat medium supplemented with Torpedo™ Antibiotic Mix (BioreclamationIVT). After hepatocyte attachment, media was changed to InVitroGRO™ HI Rat medium with Torpedo™ Antibiotic Mix.
Hepatocytes were fixed in 4% PFA for 15 minutes. PFA was then removed and cells were washed twice in Dulbecco’s phosphate-buffered saline (DPBS) containing 0.2% Triton-X and then permeabilized for 10 minutes with DPBS/0.2% Triton-X. Cells were then treated for 30 minutes with Odyssey protein blocking buffer (Li-cor Biosciences, Lincoln, NE, USA) before addition of a mouse monoclonal IgG2a GKRP antibody [GCKR (A-8); Santa Cruz Biotechnology, Inc., Santa Cruz, CA, USA]. The antibody (200 µg/ml) was diluted (1∶50) in protein blocking buffer and incubated with cells for 120 minutes. Cells were then washed (4×5 minutes) in PBS/0.1% Tween-20 before addition of protein blocking buffer containing Alexa Fluor® 647 Goat Anti-Mouse IgG (H+L) (Invitrogen; 1∶500 dilution) and rabbit polyclonal GCK antibody [1∶30 dilution; GCK (H-88) 200 µg/ml; Santa Cruz Biotechnology]. After 60 minutes, cells were washed with PBS/0.1% Tween-20 (4×5 minutes). […]

[7] = biological target: T3, Recombinant glutathione-S-transferase (GST)-tagged human glucokinase (human, UniProt P35557 1-465); assay: AlphaScreen or HTRF; 384-well plate; GST-GCK and FLAG-GKRP each titrated 0-150 nM in solution; anti-GST K (donor) and anti-FLAG XL 665 (acceptor) antibodies; 2 mM MgCl2, 25 mM KCl, 25 mM HEPES, 1 mM DTT, 0.1% Tween-20, 0.025% BSA, pH 7.1; room temperature, read at t = 60 minutes; signal ratio 665 nm/615 nm; settings: both partners purified
T3 construct: glucokinase (GCK), human; also called GCK; GST-GCK; source: prepared as described previously [24], [35]
T3 sequence (looked up): T1 sequence (P35557 1-465)

[8] = biological target: T3, Recombinant glutathione-S-transferase …; assay: AlphaScreen or HTRF; 1536-well plate, 4 µl final volume; 5 nM GST-GCK and 5 nM FLAG-GKRP in solution, without S6P or with S6P (2 µM for the inhibitor tests); anti-GST K and anti-FLAG XL 665 antibodies; HTRF assay buffer pH 7.1; room temperature, 60 minutes; signal ratio 665 nm/615 nm; settings: both partners purified

Molecule: Nc1ncnc2c1ncn2[C@@H]1O[C@H](COP(=O)(O)OP(=O)(O)OP(=O)(O)O)[C@@H](O)[C@H]1O [ATP]
- Km ([1]; recombinant GST-GCK, read-out: ATP Km, previously described): 400 µM
- Km [2]: 400 ± 110 µM

Molecule: OC[C@@H](O)[C@@H](O)[C@H](O)[C@@H](O)CO [sorbitol]
- GCK translocation response ([5]; lot FOS): no translocation was observed
- GCK translocation response ([5]; lot TRZ, 2.5 mM glucose): approximately four-fold

Continued, in another order:

- Hill coefficient ([3]; mean ± SD): 1.53±0.1
- glucose S0.5 ([3]; mean ± SD across two experiments): 7.5 ± 0.8 mM
- IC50 [4]: 16 ± 1.4 mM
Molecule: OC[C@H]1OC(O)[C@H](O)[C@@H](O)[C@@H]1O (some centres unmarked) [glucose]
- Hill coefficient, previously reported [1]: 1.6–1.7
- glucose S0.5, previously reported [1]: 7.5 to 10 mM
- increase in number of translocation-positive cells ([5]; 25 mM glucose compared to 2.5 mM glucose, both lots (TRZ, FOS)): approximately 10%
- cells with translocated GCK ([6]; 2.5 mM glucose): 25%
- cells with translocated GCK ([6]; 16.7 mM glucose): 84%

- HTRF signal ratio (665 nm/615 nm) at 5.56 nM of both proteins [7]: 1.77
- HTRF signal ratio (665 nm/615 nm) at 5 nM of both proteins, no S6P [8]: 1.87
B1: Recombinant FLAG-tagged human glucokinase regulatory protein (natural protein, UniProt Q14397 1-625, looked up)
chain: T2 sequence (Q14397 1-625)
notes: glucokinase regulatory protein (GKRP), encoded by GCKR, human; also called GKRP; FLAG-GKRP; source: prepared as described previously [24], [35]
